Source: patent US20250352550A1, “SUBSTITUTED FUROPYRIDINES FOR THERAPEUTIC USE” (MASARYKOVA UNIVERZITA, priority 2022, published 2025)

Assays:
Format in all cases: biochemical
KHS/MAP4K5 = target: T1, KHS/MAP4K5 (Homo sapiens, UniProt Q9Y4K4); assay: HotSpot radiometric kinase assay (Reaction Biology), KHS/MAP4K5; details: 1.5 nM kinase, substrate MBP 20 μM, 33P-ATP, 120 minutes at room temperature
T1 construct: purchased Reaction Biology
Experimental: The compounds were profiled in the HotSpot radiometric assays (Reaction Biology).
Briefly, • 1. Substrate indicated in Table 1 was dissolved in freshly prepared reaction buffer (20 mM HEPES (pH 7.5), 10 mM MgCl2, 1 mM EGTA, 0.01% Brij35, 0.02 mg/ml BSA, 0.1 mM Na3VO4, 2 mM DTT, 1% DMSO) at the concentration indicated in Table 1. • 2. Corresponding kinase (concentration indicated in Table 1) was added and the mixture was gently mixed. • 3. Tested compound dissolved in DMSO was added into the kinase reaction mixture. • 4. ^33P-ATP (specific activity 0.01 μCi/μL final) was added into the reaction mixture to initiate the reaction. • 5. The kinase reaction was incubated for 120 minutes at room temperature. • 6. Reaction mixture was spotted onto P81 ion exchange paper (Whatman K 3698-915). • 7. The filters were extensively washed with […]. • 7. The radioactive phosphorylated substrate remaining on the filter paper was measured.
Kinase activity data were expressed as the percent remaining kinase activity in tested samples compared to the vehicle (DMSO) reactions. IC50 values and curve fits were obtained using Prism4 Software (GraphPad).
Table 2 summarizes the inhibitory activities of indicated compounds tested in the in vitro kinase assays described above.

FLT3 = target: T2, FLT3 (Homo sapiens, UniProt P36888); assay: HotSpot radiometric kinase assay (Reaction Biology), FLT3; details: 4 nM kinase, substrate ABLtide 20 μM, 33P-ATP, 120 minutes at room temperature
T2 construct: purchased Reaction Biology
T2 sequence (P36888 27-993): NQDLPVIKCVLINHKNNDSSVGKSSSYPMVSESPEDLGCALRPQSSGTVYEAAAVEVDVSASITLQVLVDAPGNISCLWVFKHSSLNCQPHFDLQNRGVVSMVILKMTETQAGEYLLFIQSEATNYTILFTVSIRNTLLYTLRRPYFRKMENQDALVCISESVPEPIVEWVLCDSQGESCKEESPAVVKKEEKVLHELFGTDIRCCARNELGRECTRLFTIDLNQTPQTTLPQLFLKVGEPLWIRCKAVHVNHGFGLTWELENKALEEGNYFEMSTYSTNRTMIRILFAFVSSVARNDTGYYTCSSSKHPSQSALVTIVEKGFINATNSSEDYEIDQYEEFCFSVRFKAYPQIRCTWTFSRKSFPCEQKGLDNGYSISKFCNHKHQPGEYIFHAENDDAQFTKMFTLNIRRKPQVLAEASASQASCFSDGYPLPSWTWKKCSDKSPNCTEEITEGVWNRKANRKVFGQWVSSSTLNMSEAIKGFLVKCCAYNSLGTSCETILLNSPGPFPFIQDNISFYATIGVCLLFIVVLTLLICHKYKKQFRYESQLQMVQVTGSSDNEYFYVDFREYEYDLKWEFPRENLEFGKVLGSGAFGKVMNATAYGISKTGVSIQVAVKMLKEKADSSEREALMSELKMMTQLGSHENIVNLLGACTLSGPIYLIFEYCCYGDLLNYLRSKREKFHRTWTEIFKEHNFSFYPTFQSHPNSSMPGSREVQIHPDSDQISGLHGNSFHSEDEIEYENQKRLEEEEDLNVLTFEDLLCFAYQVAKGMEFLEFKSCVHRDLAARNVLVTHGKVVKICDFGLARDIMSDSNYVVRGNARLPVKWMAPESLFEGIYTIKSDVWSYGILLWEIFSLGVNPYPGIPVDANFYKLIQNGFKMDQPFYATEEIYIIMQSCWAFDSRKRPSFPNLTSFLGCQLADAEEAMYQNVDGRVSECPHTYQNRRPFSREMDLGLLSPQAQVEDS
Outline: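 Radiometric filter-binding assay with kinase and substrate in HEPES pH 7.5 buffer containing MgCl2, EGTA, Brij35, BSA, Na3VO4, DTT and 1% DMSO, started with ^33P-ATP and run 120 min at room temperature. Phosphorylated substrate on P81 paper counted; activity expressed as % of DMSO control, IC50 from curve fits.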

DDR1 = target: T3, DDR1 (Homo sapiens, UniProt Q08345); assay: HotSpot radiometric kinase assay (Reaction Biology), DDR1; details: 200 nM kinase, substrate IRS1tide 20 μM, 33P-ATP, 120 minutes at room temperature
T3 construct: purchased Reaction Biology
Outline: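 Radiometric filter-binding assay: kinase and substrate in 20 mM HEPES pH 7.5, 10 mM MgCl2, 1 mM EGTA, 2 mM DTT, 1% DMSO. Reaction started with ^33P-ATP (0.01 μCi/μL final), run 120 minutes at room temperature. Activity expressed as percent of DMSO control; IC50 from curve fits.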

T1 sequence (Q9Y4K4 whole entry): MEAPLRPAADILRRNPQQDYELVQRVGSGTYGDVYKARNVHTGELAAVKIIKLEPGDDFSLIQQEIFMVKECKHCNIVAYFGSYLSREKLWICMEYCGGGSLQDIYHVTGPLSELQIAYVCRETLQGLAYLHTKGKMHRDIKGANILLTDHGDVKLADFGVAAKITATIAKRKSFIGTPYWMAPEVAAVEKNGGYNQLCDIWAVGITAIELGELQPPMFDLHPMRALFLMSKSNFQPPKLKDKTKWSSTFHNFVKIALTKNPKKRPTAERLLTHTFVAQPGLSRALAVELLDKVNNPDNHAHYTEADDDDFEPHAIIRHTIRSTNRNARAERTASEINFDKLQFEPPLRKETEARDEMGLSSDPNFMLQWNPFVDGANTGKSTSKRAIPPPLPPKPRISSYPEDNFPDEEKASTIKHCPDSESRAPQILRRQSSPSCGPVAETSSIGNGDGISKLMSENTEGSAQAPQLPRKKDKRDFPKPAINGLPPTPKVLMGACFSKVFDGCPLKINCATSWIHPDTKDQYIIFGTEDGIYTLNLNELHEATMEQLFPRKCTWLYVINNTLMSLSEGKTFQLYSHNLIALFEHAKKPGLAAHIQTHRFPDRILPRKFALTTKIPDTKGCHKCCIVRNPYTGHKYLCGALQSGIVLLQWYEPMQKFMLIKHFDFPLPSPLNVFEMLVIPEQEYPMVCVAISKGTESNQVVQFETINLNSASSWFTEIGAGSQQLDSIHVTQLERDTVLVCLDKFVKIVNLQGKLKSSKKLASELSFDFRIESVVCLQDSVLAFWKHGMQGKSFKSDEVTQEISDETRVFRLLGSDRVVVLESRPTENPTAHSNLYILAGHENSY
T3 sequence (Q08345 19-913): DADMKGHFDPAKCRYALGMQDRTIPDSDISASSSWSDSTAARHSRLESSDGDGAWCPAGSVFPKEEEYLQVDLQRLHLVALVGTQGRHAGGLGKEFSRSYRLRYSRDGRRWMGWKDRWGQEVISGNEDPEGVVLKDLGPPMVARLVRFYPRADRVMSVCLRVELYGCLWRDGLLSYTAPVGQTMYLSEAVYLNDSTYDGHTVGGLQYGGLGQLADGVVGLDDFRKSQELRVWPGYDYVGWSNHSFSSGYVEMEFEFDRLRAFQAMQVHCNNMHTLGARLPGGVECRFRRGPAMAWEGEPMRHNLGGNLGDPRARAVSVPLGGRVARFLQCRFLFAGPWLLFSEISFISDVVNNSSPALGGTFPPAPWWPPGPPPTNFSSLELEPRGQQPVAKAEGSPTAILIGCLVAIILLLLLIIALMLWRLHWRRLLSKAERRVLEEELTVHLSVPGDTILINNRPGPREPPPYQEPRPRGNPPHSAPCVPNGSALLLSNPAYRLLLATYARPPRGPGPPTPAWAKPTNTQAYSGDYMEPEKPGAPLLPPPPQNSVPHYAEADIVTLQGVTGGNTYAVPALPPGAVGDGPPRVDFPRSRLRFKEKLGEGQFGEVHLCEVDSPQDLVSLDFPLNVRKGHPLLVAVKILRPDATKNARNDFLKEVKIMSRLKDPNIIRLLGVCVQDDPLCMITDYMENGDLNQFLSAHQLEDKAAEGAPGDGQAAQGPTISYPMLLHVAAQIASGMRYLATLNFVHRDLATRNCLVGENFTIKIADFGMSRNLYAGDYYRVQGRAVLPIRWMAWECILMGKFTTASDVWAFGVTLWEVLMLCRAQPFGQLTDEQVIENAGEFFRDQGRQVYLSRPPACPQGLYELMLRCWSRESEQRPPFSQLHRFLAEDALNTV

SMILES	IC50 (KHS/MAP4K5) [µM]	IC50 (FLT3) [µM]	IC50 (DDR1) [µM]
CN(C)S(=O)(=O)c1cccc(-c2coc3cc(-c4ccc(N5CCNCC5)cc4)cnc23)c1 [Preparative Example 61, N,N-dimethyl-3-(6-(4-(piperazin-1-yl)phenyl)furo[3,2-b]pyridin-3-yl)benzenesulfonamide]	0.896	0.073	0.272
NCc1cccc(-c2coc3cc(-c4ccc(N5CCNCC5)cc4)cnc23)c1 [Preparative Example 87, (3-(6-(4-(piperazin-1-yl)phenyl)furo[3,2-b]pyridin-3-yl)phenyl)methanamine]	0.456	0.062	0.301
CN1CCN(c2ccc(-c3cnc4c(-c5cccc(CO)c5)coc4c3)cc2)CC1 [Preparative Example 90, (3-(6-(4-(4-methylpiperazin-1-yl)phenyl)furo[3,2-b]pyridin-3-yl)phenyl)methanol]	0.394	0.024	0.163
CC(=O)OCc1cccc(-c2coc3cc(-c4ccc(N5CCN(C)CC5)cc4)cnc23)c1 [Preparative Example 94, 3-(6-(4-(4-methylpiperazin-1-yl)phenyl)furo[3,2-b]pyridin-3-yl)benzyl acetate]	0.641	0.077	0.155
CNc1cccc(-c2coc3cc(-c4ccc(N5CCN(C)CC5)cc4)cnc23)c1 [Preparative Example 110, N-methyl-3-(6-(4-(4-methylpiperazin-1-yl)phenyl)furo[3,2-b]pyridin-3-yl)aniline]	0.934	0.053	0.187
c1cc(SC2CCC2)cc(-c2coc3cc(-c4ccc(N5CCNCC5)cc4)cnc23)c1 [Preparative Example 164, 3-(3-(cyclobutylthio)phenyl)-6-(4-(piperazin-1-yl)phenyl)furo[3,2-b]pyridine]	0.737	0.151	0.361
Fc1cccc(-c2coc3cc(-c4ccc(N5CCNCC5)cc4)cnc23)c1 [Preparative Example 170, 3-(3-fluorophenyl)-6-(4-(piperazin-1-yl)phenyl)furo[3,2-b]pyridine]	0.889	0.031	0.12
CN1CCN(c2ccc(-c3cnc4c(-c5cc(C(N)=O)ccc5F)coc4c3)cc2)CC1 [Preparative Example 211, 4-fluoro-3-(6-(4-(4-methylpiperazin-1-yl)phenyl)furo[3,2-b]pyridin-3-yl)benzamide]	0.167	0.021	0.528
CN1CCN(c2ccc(-c3cnc4c(-c5cc(F)cc(C(N)=O)c5)coc4c3)cc2)CC1 [Preparative Example 219, 3-fluoro-5-{6-[4-(4-methylpiperazin-1-yl)phenyl]furo[3,2-b]pyridin-3-yl}benzamide]	0.756	0.056	0.027
CN1CCN(c2ccc(-c3cnc4c(Oc5ccccc5)coc4c3)cc2)CC1 [Preparative Example 229, 1-methyl-4-(4-{3-phenoxyfuro[3,2-b]pyridin-6-yl}phenyl)piperazine]	0.284	0.729	0.308
